From patent publication US7498292B2, “Combinatorial libraries of autoinducer analogs, autoinducer agonists and antagonists, and methods of use thereof” (The Research Foundation of State University of New York, priority 2002, dated 2009)
“Also recorded” adds a separate entry of the source. Where two headings read alike, the source gives them in different places.

Assays:
RhlR [1] = target: T1, RhlR (Pseudomonas aeruginosa, UniProt P54292); type: cell-based, P. aeruginosa; conditions: for AI2 agonist activity (induction of rhlI-gfp reporter): in the presence of 1 μM AI1, 10, 100, 400 μM analog
T1 construct: an RhlR-AI2 controlled rhlI-gfp reporter, PAO-JP2 (prhlI-LVAgfp); endogenous in cells; host or cells: P. aeruginosa PAO-JP2 (prhlI-LVAgfp)
Method: Thus, it was hypothesized that a 5- or 6-membered ring with a keto or hydroxyl group (or other hydrogen bond acceptor) adjacent to the amine is sufficient for both binding and activation of LasR. To test this hypothesis, the series of molecules shown in FIG. 13 (compounds 14) was synthesized.
(§1) Reporter strains were grown overnight in LB plus 300 μg/ml carbenicillin at 37° C. and diluted to an OD600 of 0.1. Following an incubation of 1 hour, 200 μl of cell culture was added to individual wells of a 96 well plate containing appropriate amount of test compound(s). Plates were incubated for 6 hours and then scanned for fluorescence emission with a Molecular Imager (488 nm excitation and 695 nm bandpass filter). Fluorescence was quantified with ImageQuant software.
The C4 compounds (A12 and 5-8) were analyzed for agonist activity using PAO-JP2 (prhlI-LVAgfp) (FIGS. 14C and D). Induction of GFP expression in this reporter requires addition of both AI1 and AI2. The AI2 control and agonist assays, therefore, were performed in the presence of 1 μM AI1 and increasing concentrations of AI2 or analog (FIGS. 14C and D).

LasR [2] = target: T2, LasR (Pseudomonas aeruginosa, UniProt P25084); assay: lasI-gfp reporter agonist assay, PAO-JP2 (plasI-LVAgfp); type: cell-based, P. aeruginosa; conditions: for agonist activity (induction of lasI-gfp reporter): PAO-JP2 (plasI-LVAgfp), compounds made in solution phase, increasing concentrations (1, 100, 400 μM)
T2 construct: endogenous in cells; host or cells: P. aeruginosa PAO-JP2 (lasI, rhlI) harboring plasI-LVAgfp
Source text: Since this strain lacks the ability to produce natural AIs due to disruption of both AI synthase genes, activation of LasR relies on the addition of exogenous AI1. Expression of gfp (encoding green fluorescent protein) is under control of the LasR-AI1 inducible lasI promoter, allowing rapid screening for LasR agonists by measuring the level of GFP expression in their presence.
(§2) P. aeruginosa strain PAO-JP2 (lasI, rhlI) (Rahme et al., Science 268:1899-1902 (1995), which is hereby incorporated by reference in its entirety) harboring plasI-LVAgfp (Pearson et al., Proc. Natl Acad. Sci. USA 91:197-201 (1994), which is hereby incorporated by reference in its entirety) was grown at 37° C. in LB with 300 μg/ml carbenicillin. For agonist assays, an overnight culture was diluted to an OD600 of 0.1 and transferred to wells of a 96-well plate on which test compounds had previously been added and dried. The final concentration of each analog tested was roughly 400 μM, although this is an overestimate due to purity issues. Cells were then incubated for 6 hours at 37° C. with vigorous shaking. GFP expression was detected with a Molecular Imager (BioRad) (488 nm excitation and 695 nm bandpass filter) and quantified with ImageQuant software. The OD600 of cultures was determined to normalize GFP expression to cell density.
as §1

LasR [3] = target: T2, LasR; assay: lasI-gfp reporter antagonist (competition against AI1) assay, PAO-JP2 (plasI-LVAgfp); type: cell-based, P. aeruginosa; conditions: for reduction of GFP expression (lasI-gfp): 1 μM AI1
Method: as §2
The methods were the same as described in Example 2 (GFP Reporter Assay), except that 1 μM AI1 was added to each well in combination with the library compound. The fluorescence/OD600 of each compound competing against AI1 was reported relative to the fluorescence/OD600 of the positive control of AI1 alone, which was set to 1. When strain PAO-JP2 (prhlI-LVAgfp) was used, the positive control was 1 μM AI1 and 10 μM AI2. Eight compounds that inhibited reporter gene expression by greater than 50% were identified (see, e.g., FIG. 6).
as §1

pyocyanin [4] = assay: pyocyanin assay, strain PAO-JP2; type: cell-based, P. aeruginosa PAO-JP2; conditions: PAO-JP2, 25 μM each of AI1 and AI2, 18 hours
Method: (§3) For the pyocyanin assay, cells were grown overnight in LB then washed in fresh media and diluted to an OD600 of 0.05. This culture was grown for 3-4 hours to mid-log phase (OD600 of 0.3-0.5), then diluted to an OD600 of 0.05, and aliquoted to test tubes containing an appropriate amount of test compound(s). Following 18 hours of growth, pyocyanin was extracted from filtered culture supernatants and quantified using standard methods (Essar et al., J. Bacteriol. 172:884-900 (1990), which is hereby incorporated by reference in its entirety).

pyocyanin [5] = assay: pyocyanin assay, wild type strain PAO1; type: cell-based, P. aeruginosa PAO1; conditions: wild type PAO1, no AIs added
Method: as §3

RhlR [6] = assay: rhlI-gfp reporter antagonist assay, PAO-JP2 (prhlI-LVAgfp); type: cell-based, P. aeruginosa; conditions: competing against 1 μM AI1 and 10 μM AI2
Method: Each compound in the library was tested for antagonist activity using the same reporter strain, PAO-JP2 (plasI-LVAgfp) (de Kievit et al., Appl. Environ. Microbiol. 67:865-1873 (2001), which is hereby incorporated by reference in its entirety) to find compounds that could compete against AI1 and reduce GFP expression. The methods were the same as described in Example 2 (GFP Reporter Assay), except that 1 μM AI1 was added to each well in combination with the library compound. The fluorescence/OD600 of each compound competing against AI1 was reported relative to the fluorescence/OD600 of the positive control of AI1 alone, which was set to 1. When strain PAO-JP2 (prhlI-LVAgfp) was used, the positive control was 1 μM AI1 and 10 μM AI2.
3- oxo-C12-D10 was synthesized in solution phase, where the natural side chain was coupled with D10 and purified by chromatography. To determine if the same structural motif can be applied to inhibition of the RhlR-AI2 interaction, C4-D10 was also synthesized. Assays were performed with both the lasI-gfp reporter PAO-JP2 (plasI-LVAgfp) and an RhlR-AI2 controlled rhlI-gfp reporter, PAO-JP2 (prhlI-LVAgfp) (FIGS. 10A-C) (de Kievit et al., Appl. Environ. Microbiol. 67:865-1873 (2001), which is hereby incorporated by reference in its entirety).
as §1
Next the ability of 2 and 3 to inhibit the rhlI-gfp reporter strain PAO-JP2 (prhlI-LVAgfp) was tested, since this expression is also AI1-dependent.

PAO1 (pTdK-GFP) biofilm = assay: static biofilm assay, PAO1 (pTdK-GFP); type: cell-based, P. aeruginosa
Method: (§4) Compound 3 was tested for its effect on biofilm development in a 24-hour assay that looks at the early stages of biofilm formation. […] Cultures were grown at 37° C. with shaking for 30 minutes, and then allowed to sit at 37° C. for an additional 23.5 hours. Coverslips were then rinsed and placed on slides for visualization using an MRC1024 Laser Scanning Microscope (BioRad) with a Nikon Fluor-60X oil emersion objective lens (NA=1.4), 488 nm Argon Laser and OG515 filter.
The same assay was run with strain PAO-1 (pTdK-GFP), and no exogenous autoinducers were added. […] The above results provide additional evidence that compound 3 interferes with QS signaling and reduces the production of important virulence factors.

Elastase B [7] = assay: elastase (Elastin Congo Red) assay, strain PAO-JP2; type: cell-based, P. aeruginosa PAO-JP2; conditions: PAO-JP2, 10-100 μM compound, competing against 5 μM AI1 and 10 μM AI2
Method: (§5) Pyocyanin, elastase, and biofilm were assayed as previously described (Smith et al., Chem. Biol. 10:81-89 (2003), which is hereby incorporated by reference in its entirety). Elastase activity produced by P. aeruginosa in the presence of AIs and competing 3-oxo-C12-D10 was determined by measuring breakdown of the substrate Elastin Congo Red.
(§6) For the elastase B assay, cells (PAO-JP2) were grown overnight in PTSB media (5% Peptone, 0.1% Tryptic Soy Broth) at 37° C., washed and diluted to an OD600 of 0.05, grown to mid-log phase, washed again, and re-suspended to an OD600 of 0.05. The culture was then added to test tubes containing test compound(s) and grown for 6 hours. Elastase B activity was quantified by incubation of 100 μl of filtered culture supernatant with 5 mg Elastin Congo Red substrate and 1 ml of 10 mM Tris pH 7.2, 1 mM CaCl2 for 6 hours at 37° C. with agitation. Elastase B activity is represented by the OD495 of the enzyme assay following reaction quenching with EDTA and centrifugation to remove unreacted substrate, divided by the OD600 of the cell culture. The same assay was run with strain PAO-1, however no exogenous autoinducers were added.

Elastase B [8] = assay: elastase (Elastin Congo Red) assay, wild type strain PAO1; type: cell-based, P. aeruginosa PAO1; conditions: wild type PAO1, no exogenous autoinducers
Method: as §5, §6

[9] = system: PAO-JP2 (pTdK-GFP) biofilm; assay: static biofilm assay, PAO-JP2 (pTdK-GFP); type: cell-based, P. aeruginosa; conditions: PAO-JP2 (pTdK-GFP) with exogenous AIs, 24-hour static assay
Method: as §4

lac promoter = assay: GFP expression from lac promoter, PAO-JP2 (pTdK-GFP) (specificity control); type: cell-based, P. aeruginosa; conditions: lasI promoter replaced with a lac promoter
LasR [10] = target: T2, LasR; assay: lasB-lacZ reporter assay, E. coli MG4 (pKDT37); type: cell-based, P. aeruginosa
Method: E. coli strain MG4 (pKDT37) was grown overnight in Supplemented A media with 100 μg/mL ampicillin at 30° C. and diluted 1:100 in the same media. 1 mL of this culture was added to a test tube containing AI1 or 3-oxo-C12-D12 that had been previously aliquoted and dried. Following a 6 hour incubation at 30° C., β-galactosidase activity was determined using standard methods (Platt et al., Assays of the lac operon Enzymes In: Experiments in Molecular Genetics, Cold Spring Harbor Laboratory Press, Cold Spring Harbor, N.Y., pp. 352-355 (1972), which is hereby incorporated by reference in its entirety).
One of the new agonist structures identified from the library, D12, is 2-aminocyclohexanol (FIG. 5B). […] 3-oxo-C12-D12, containing the natural side chain, was synthesized in solution phase, and tested with both the lasI-gfp reporter as well as a lasB-lacZ reporter in Escherichia coli. E. coli strain MG4 harboring plasmid pKDT37 expresses lasR and contains a lacZ reporter gene controlled by a LasR-AI1 inducible lasB promoter (Passador et al., J. Bacteriol. 178:5995-6000 (1996), which is hereby incorporated by reference in its entirety). […] It also provides strong evidence that the agonist activity in P. aeruginosa is LasR dependent.

T2 sequence (P25084 whole entry): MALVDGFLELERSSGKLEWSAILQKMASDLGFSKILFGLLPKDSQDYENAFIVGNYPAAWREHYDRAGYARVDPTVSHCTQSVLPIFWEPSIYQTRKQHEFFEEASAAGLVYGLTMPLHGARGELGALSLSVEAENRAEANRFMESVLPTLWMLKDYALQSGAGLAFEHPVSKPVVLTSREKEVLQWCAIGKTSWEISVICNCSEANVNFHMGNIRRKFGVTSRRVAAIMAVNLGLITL
T1 sequence (P54292 whole entry): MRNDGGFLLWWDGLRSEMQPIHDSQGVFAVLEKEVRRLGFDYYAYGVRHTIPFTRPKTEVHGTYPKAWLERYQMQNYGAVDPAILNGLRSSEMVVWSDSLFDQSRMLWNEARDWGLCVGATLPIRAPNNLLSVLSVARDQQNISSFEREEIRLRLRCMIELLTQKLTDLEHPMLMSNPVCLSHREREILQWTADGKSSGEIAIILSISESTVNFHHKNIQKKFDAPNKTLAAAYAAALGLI

CCCC(=O)N[C@@H]1CCCC[C@H]1O (relative stereo) [Compound 8, N-(trans-2-hydroxy)cyclohexylbutanamide]
GFP expression (rhlI-gfp) (RhlR [1]; 400 μM analog, 1 μM AI1): moderate GFP expression
AI2 agonist activity (induction of rhlI-gfp reporter) (RhlR [1]): very little AI2 agonist activity

CCCC(=O)NC1CCCC1=O (stereo not shown) [Compound 5, N-2-oxocyclopentylbutanamide]
AI2 agonist activity (induction of rhlI-gfp reporter) (RhlR [1]): strong agonist activity

CCCCCCCCCC(=O)CC(=O)NC1CCCC1=O (stereo not shown) [Compound 1, N-(2-oxocyclopentyl)-3-oxododecanamide]
agonist activity (induction of lasI-gfp reporter) (LasR [2]): able to induce the reporter only at a very high concentration; also recorded: weak agonist

CCCCCCCCCC(=O)CC(=O)Nc1ccccc1O [3-oxo-C12-D10]
las circuit inhibition, comparison of potency (LasR [3]): more potent than 3
reduction of GFP expression (lasI-gfp) (LasR [3]; 10 μM compound): approximately 60%
reduction of GFP expression (lasI-gfp) (LasR [3]; 100 μM compound): ~90%
effect on pyocyanin production (pyocyanin [4]): not able to interfere with pyocyanin production
effect on pyocyanin production (pyocyanin [5]): not able to interfere with pyocyanin production
inhibition of GFP expression (rhlI-gfp) (RhlR [6]; 50 μM compound): more than 80%
effect on biofilm morphology (PAO1 (pTdK-GFP) biofilm; wild type PAO1): fluffy
effect on biofilm formation (PAO1 (pTdK-GFP) biofilm; wild type PAO1, no exogenous autoinducers): did not interfere with biofilm formation
reduction of elastase activity (Elastase B [7]): approximately 50%
effect on elastase activity (Elastase B [8]): reduced elastase activity
effect on biofilm formation [9]: slightly enhanced rather than inhibited

CCCC(=O)N[C@@H]1CCC[C@H]1O (relative stereo) [Compound 6, N-(trans-2-hydroxy)cyclopentylbutanamide]
antagonist activity on rhlI-gfp reporter (RhlR [6]): no inhibition
AI2 agonist activity (induction of rhlI-gfp reporter) (RhlR [1]): no agonist activity
AI2 agonist activity (induction of rhlI-gfp reporter) (RhlR [1]; listed as C4-(2-aminocylcopentanol)): could not activate RhlR

CCCCCCCCCC(=O)CC(=O)N[C@@H]1CCC[C@H]1O (relative stereo) [Compound 2, N-(trans-2-hydroxycyclopentyl)-3-oxododecanamide]
inhibition of GFP expression from lac promoter (lac promoter): inability to inhibit GFP expression
antagonist activity on rhlI-gfp reporter (RhlR [6]): no antagonist activity
agonist activity (induction of lasI-gfp reporter) (LasR [2]): nearly unable to induce the reporter

CCCC(=O)NC1CCCCC1=O (stereo not shown) [Compound 7, N-2-oxocyclohexylbutanamide]
AI2 agonist activity (induction of rhlI-gfp reporter) (RhlR [1]): strong agonist activity

CCCCCCCCCC(=O)CC(=O)N[C@@H]1CCCC[C@H]1O (relative stereo) [Compound 4, N-(trans-2-hydroxycyclohexyl)-3-oxododecanamide]
agonist activity (induction of lasI-gfp reporter) (LasR [2]): strong agonist activity; also recorded: strongest agonist
agonist activity (induction of lasI-gfp reporter) (LasR [2]; listed as 3-oxo-C12-D12): activated
GFP induction, fold less than AI1 (LasR [2]; at 1 μM): 2 fold
GFP induction compared with AI1 (LasR [2]; at higher concentrations (100, 400 μM)): comparable to AI1
lasB-lacZ reporter activation (beta-galactosidase activity) (LasR [10]; E. coli MG4 (pKDT37), 6 hour incubation): activated
LasR inducing activity compared with natural AI1 (LasR [10]; lasI-gfp and lasB-lacZ reporters (FIG. 9)): comparable to the natural AI1
